Laboratory results as given in patent US20260183306A1, “Methods for Treating Respiratory Diseases Characterized by Mucus Hypersecretion” (The Board of Trustees of the Leland Stanford Junior …, priority 2022, published 2026).
Entries after “also recorded” stand apart in the source; their conditions may differ.

Legend:
[1] = tested on: primary human nasal epithelial cells (HNECs); experiment: Multiciliated cell (MCC) formation in HNEC air-liquid interface (ALI) cultures; format: cell-based; conditions: for multiciliated cell numbers, treatment during differentiation: differentiation only (ALI+0 to +21d) and continuous (preALI+ALI) treatments; for multiciliated cell formation in mature cultures: mature (ALI+30d) cultures treated one (ALI+30 to +37d) or two weeks (ALI+30 to +44d); for multiciliated cell formation, treatment during proliferation only: pre-ALI only (ALI-5 to -1d)
Experimental: Air-Liquid Interface (ALI) cultures were prepared as described in Vladar E K, Nayak J V, Milla C E, Axelrod J D. Airway epithelial homeostasis and planar cell polarity signaling depend on multiciliated cell differentiation. JCI Insight. 2016; 1(13); e88027. Human nasal epithelial cells (HNECs) were generated from human sinonasal epithelial brushings or from tissue obtained from patients undergoing endoscopic sinus surgery at Stanford Hospital and cultured as described in Vladar et al.
Cultures were treated with varying doses of semagacestat. DAFT (Abcam) was used ([…]) as a positive cone ml for GSI activity. Cultures were labeled at ALI+21 d with anti-acetylated α-tubulin (green) and ECAD (red) antibodies to mark cilia and epithelial junctions. […] The ratio was defined as MCC number/total luminal cells. Counting was done on one representative image from 5 culture replicates from a single donor.
Primary human airway epithelial cells were treated with DAPT and LY45139: i) during proliferation only (ALI-5 to -Id), ii) during differentiation only (ALI+0 to +21d) or iii) continuously during the entire culture duration, followed by labeling at ALI+21d with anti-acetylated α-Tubulin (green) and ECAD (red) antibodies.
Mature (ALI+30d) primary human airway epithelial cells were treated with DAFT and semagacestat for one (ALI+30 to +37d) or two weeks (ALI+30 to +44d), then labeled with anti-acetylated α-Tubulin (green) and ECAD (red) antibodies.
Primary human airway epithelial cells were treated with DAFT and LY45139 during differentiation only (ALI+0 to +21d) from either the apical or basal surface, then labeled at ALI+21d with anti-acetylated α-Tubulin (green) and ECAD (red) antibodies. […] Apical treatment eliminates the air-liquid interface, which results in the poor epithelial structure and multiciliated cell differentiation in the untreated cultures, which is partially rescued by GSI treatment.
While this effect may be beneficial as a therapeutic, DAPT is not suitable for human use. It was sought to identify GSIs for potential therapeutic application among small molecules previously used in clinical trials that were developed to have acceptable drug-like properties. […] Healthy human nasal epithelial cell (HNEC) primary cultures were grown at air-liquid interface (ALI) in homemade culture medium to support the consistent differentiation of multiciliated cells as approximately 45-55% of the luminal cells, similar to the in vivo airways (24) (FIG. 35A, 40A). The use of homemade culture medium is important, as cultures grown in commercially available Pneumacult medium often contain 85-95% multiciliated cells at the luminal surface (FIG. S4A). HNECs were treated with a low and high dose (based on IC50 for Notch inhibition, Selleckchem) of each compound during the entire 21 days of ALI differentiation (ALI+0 to 21d). The fraction of mature multiciliated cells was quantitated using wholemount ac. α-Tubulin antibody (marks ciliary axonemes) labeling. […] DMSO control treatment had no effect on multiciliated cell number (FIG. 40A).
HNEC primary culture comprises an initial proliferative phase when basal stem cells establish the epithelial layer under submerged culture conditions (preALI), followed by differentiation induced, in part, by lifting to ALI (30). Thus, HNECs can be used to test GSI response in both regenerative and homeostatic settings. Notch signaling between luminal cells controls epithelial cell fate, but it is also active in basal cells and regulates their differentiation and survival (14,18,31). Thus, it was asked if the GSIs LY450139 or DAFT during the proliferative preALI phase only or during the entire culture duration (proliferative+differentiation; preALI+ALI) can induce multiciliated cell formation and if GSI treatment during stem cell proliferation has detrimental effects. PreALI, GSIs was added to both the apical and basal media, and during ALI, cultures were only treated basally. […]

[2] = tested on: primary cystic fibrosis airway epithelial cells; experiment: MCC formation in cystic fibrosis airway epithelial cultures; format: cell-based, human; conditions: mature (ALI+30d) CF cultures treated one week (ALI+30 to +37d)
Experimental: To assess the effects of combining semagacestat and CFTR modulator treatment, wild-type control and CF (F508AIF5080) HNEC cultures were grown to maturity with or without semagacestat from ALI+0-21d and cultures were treated with or without Lumacaftor (VX-809) from ALI+19-21d and Ivacaftor (VX-770) for ten minutes prior to fixation. PFA fixed membranes were then stained for Acetylated tubulin (green; MCCs) and E-Cadherin (red).
Primary healthy and cystic fibrosis airway epithelial cells were treated with semagacestat (LY45139) during differentiation only (ALI+0 to +21 d) and labeled at ALI+21d with anti-acetylated α-Tubulin (green) and ECAD (red) antibodies. […] Restoration of a healthy MCC/total cell ratio is expected to improve mucociliary clearance.
Mature (ALI+30d) primary cystic fibrosis human airway epithelial cells were treated with DAPT for one week (ALI+30 to +37d), then labeled with anti-acetylated α-Tubulin (green) and ECAD (red) antibodies.
As observed in healthy HNECs, GSI-induced multiciliated cells in CF HNECs are structurally normal, and GSI treatment in both differentiating and mature CF cultures can mitigate multiciliated cell loss (FIG. 41, 43A-B).
Primary human nasal epithelial cell (HNEC) cultures. […] Primary air-liquid interface (ALI) culture of nasal epithelial cells from passage 0 (P0) or P1 basal stem cells was carried out as previously described (24,30). Briefly, cells are removed from cytobrushes with gentle enzymatic digestion. P0 HNEC cultures are initiated by seeding freshly isolated cells onto Collagen I coated Transwell filters. P1 HNEC cultures are initiated from basal cells that were first expanded on Collagen I coated plastic dishes in proliferation medium supplemented with Y-27632 (ROCK inhibitor, 10 μM), DMH-1 (BMP inhibitor, 1 μM), A-83-01, (TGF-β inhibitor, 1 μM), and CHIR99021 (WNT agonist, 1 μM)(42), all from Selleckchem. HNECs seeded onto Transwells are initially cultured submerged in proliferation medium until confluency, then lifted to ALI (considered as ALI+0d of culture) by supplying differentiation medium only from the bottom compartment. HNECs are considered mature at ALI+21d of culture. Healthy and CF HNECs used in the study were cultured in homemade media (24). CF HNECs used for the Ussing chamber measurements only were cultured in Pneumacult Ex+(proliferation) and Pneumacult ALI (differentiation) media (Stemcell). […] Healthy HNECs were treated with 10 ng/ml recombinant human IL-13 (RnD Systems).

| SMILES | multiciliated cell formation by apical versus basal application ([1]; ALI+0 to +21d from either the apical or basal surface, listed as DAFT) | ratio MCC number/total luminal cells ([1]; I μM DAPT, labeled at ALI+21 d, vs untreated, p<0.01 by ANOVA) | number of multiciliated cells, apical only treatment of submerged cultures ([1]; apical only, submerged cultures, vs untreated submerged cells) | multiciliated cell numbers, treatment during differentiation [1] | multiciliated cell numbers, treatment during differentiation ([1]; listed as DAFT) | multiciliated cell formation in mature cultures [1] | multiciliated cell formation in mature cultures ([1]; listed as DAFT) | multiciliated cell formation, treatment during proliferation only ([1]; labeled ALI+21d) | multiciliated cell formation, treatment during proliferation only ([1]; labeled ALI+21d, listed as DAFT) | multiciliated cell formation in mature CF cultures [2] | multiciliated cell formation in mature CF cultures ([2]; listed as DAFT) | effect on Notch signaling and differentiation towards MCCs ([1]; administered in the nanomolar range to human nasal epithelial cells) | toxicity / disruption of epithelial structure at high concentration ([1]; high concentration, micromolar doses (10 μM for LY450139), ALI+0 to +21d) | multiciliated cell formation at the low concentration ([1]; low dose (based on IC50 for Notch inhibition), ALI+0 to +21d, labeled ALI+21d) |
| --- | --- | --- | --- | --- | --- | --- | --- | --- | --- | --- | --- | --- | --- | --- |
| C[C@H](NC(=O)Cc1cc(F)cc(F)c1)C(=O)NC(C(=O)OC(C)(C)C)c1ccccc1 (some centres unmarked) [DAPT] | induces ciliated cell formation via both apical and basal application; also recorded: induces multiciliated cell formation via both apical and basal application | significant increases | approximately double the number of multiciliated cells | increased MCC cell numbers; also recorded: increased multiciliated cell numbers | significant increase in the proportion of multiciliated cells | induces the formation of additional multiciliated cells in mature cultures | induces the formation of additional multiciliated cells in mature cultures; also recorded: robust induction of multiciliated cell formation | had no effect on differentiation; also recorded: no detrimental effect on multiciliated cells or overall epithelial structure | not sufficient to induce extra multiciliated cell formation | induces the formation of additional multiciliated cells in mature cystic fibrosis cultures; also recorded: induces the formation of additional multiciliated cells in mature CF cultures | induces the formation of additional multiciliated cells in mature cystic fibrosis cultures | – | – | – |
| O=C(O)CC[C@H]1CC[C@@](c2cc(F)ccc2F)(S(=O)(=O)c2ccc(Cl)cc2)CC1 [MK-0752] | – | – | – | – | – | – | – | – | – | – | – | effective in blocking Notch signaling, driving differentiation towards MCCs | disrupted epithelial structure | induced multiciliated cell formation; also recorded: able to induce the formation of extra multiciliated cells |
